According to the supplement of paper PMC10307832:

Experiments:
Experiment in all cases: relative viability (nuclei count vs DMSO), 5 days (fraction); higher = more cells survive
[1] = compound: Cc1ccc2nc(NCCN)c3ncc(C)n3c2c1 + Nc1nc2[nH]cc(CCc3ccc(C(=O)N[C@@H](CCC(=O)O)C(=O)O)cc3)c2c(=O)[nH]1 [Pemetrexed] (partner 0.2 µM)
Outline: (§1)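 After 5 days of treatment, lung cancer cells in 1536-well plates were fixed and stained in a single step (final 0.05% Triton X-100, 1% formaldehyde, 1 ug/ml Hoechst) and their nuclei counted on 4× images. Treatment had been applied by pin tool the day after seeding as one drug alone or as a fixed anchor-drug dose with five library-drug doses (not always all listed) in √10 steps. Relative viability is the nuclei count of treated wells divided by that of vehicle wells, and values are medians of duplicate plates.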

Salubrinal + OSI-027 = compound: O=C(/C=C/c1ccccc1)NC(NC(=S)Nc1cccc2cccnc12)C(Cl)(Cl)Cl [Salubrinal] + COc1cccc2cc(-c3nc([C@H]4CC[C@H](C(=O)O)CC4)n4ncnc(N)c34)[nH]c12 [OSI-027] (partner 0.5 µM)
Outline: as §1

[2] = compound: Cc1ccc2nc(NCCN)c3ncc(C)n3c2c1 + CCNC(=O)c1noc(-c2cc(C(C)C)c(O)cc2O)c1-c1ccc(CN2CCOCC2)cc1 [Luminespib] (partner 0.01 µM)
Outline: as §1

[3] = compound: Cc1ccc2nc(NCCN)c3ncc(C)n3c2c1 + C[C@@H](Oc1cc(-c2cnn(C3CCNCC3)c2)cnc1N)c1c(Cl)ccc(F)c1Cl [Crizotinib] (partner 1 µM)
Outline: as §1

Cell Line	relative viability ([1]; first compound 0.04 µM)	relative viability ([1]; first compound 0.1265 µM)	relative viability ([1]; first compound 0.4 µM)	relative viability ([1]; first compound 1.265 µM)	relative viability ([1]; first compound 4 µM)	relative viability (Salubrinal + OSI-027; first compound 0.08 µM)	relative viability (Salubrinal + OSI-027; first compound 0.253 µM)	relative viability (Salubrinal + OSI-027; first compound 0.8 µM)	relative viability (Salubrinal + OSI-027; first compound 2.53 µM)	relative viability (Salubrinal + OSI-027; first compound 8 µM)	relative viability ([2]; first compound 0.04 µM)	relative viability ([2]; first compound 0.1265 µM)	relative viability ([2]; first compound 0.4 µM)	relative viability ([2]; first compound 1.265 µM)	relative viability ([2]; first compound 4 µM)	relative viability ([3]; first compound 0.04 µM)	relative viability ([3]; first compound 0.1265 µM)	relative viability ([3]; first compound 0.4 µM)	relative viability ([3]; first compound 1.265 µM)	relative viability ([3]; first compound 4 µM)
NCI-H1437	0.304	0.312	0.332	0.296	0.35	0.9	0.811	0.924	0.912	0.851	1.13	1.09	1.14	1.08	1.06	0.96	0.968	0.965	0.952	0.915
SK-LU-1	0.979	0.903	0.955	0.984	0.981	0.399	0.286	0.311	0.358	0.267	0.225	0.248	0.191	0.199	0.212	0.926	0.937	1.01	0.852	0.83
H3255	0.573	0.568	0.536	0.557	0.525	0.689	0.553	0.748	0.603	0.603	0.878	1.01	0.824	0.926	0.76	0.939	0.743	0.846	0.788	0.694
Calu-6	–	–	–	–	–	–	–	–	–	–	–	–	–	–	–	0.803	0.776	0.794	0.77	0.426
NCI-H1792	1.33	0.774	–	0.801	0.618	0.97	–	0.626	0.75	0.684	0.49	0.434	–	0.396	0.432	1.03	1.03	0.946	1.01	0.905
NCI-H2170	0.258	0.305	0.26	0.257	0.262	0.71	0.702	0.783	0.687	0.47	0.637	0.699	0.516	0.855	0.64	1.17	1.14	1.1	1.21	1.06
NCI-H1650	0.352	0.386	0.349	0.376	0.332	0.929	0.525	0.718	0.583	0.607	0.242	0.213	0.195	0.214	0.212	0.965	0.969	0.995	0.97	0.571
NCI-H2087	0.725	0.637	0.599	0.711	0.575	0.517	0.481	0.626	0.515	0.563	0.214	0.2	0.152	0.267	0.162	1.1	0.926	0.782	0.932	0.727
HCC-366	0.157	0.202	0.146	0.126	0.165	1.04	1.13	0.91	0.844	0.549	–	–	–	–	–	0.642	0.553	0.582	0.508	0.502
NCI-H727	–	–	–	–	–	0.505	0.621	0.562	0.618	0.575	0.36	–	0.358	0.385	0.4	0.984	0.82	0.779	0.811	0.925
LU99A	0.165	0.209	0.208	0.188	0.209	0.241	0.29	0.306	0.294	0.265	0.274	0.28	0.242	0.254	0.261	0.636	0.549	0.49	0.565	0.635
HCC-78	0.935	0.791	0.904	0.839	0.922	0.363	0.364	0.435	0.362	0.361	–	–	–	–	–	0.37	0.327	0.328	0.332	0.334
EBC-1	–	–	–	–	–	–	–	–	–	–	–	–	–	–	–	0.219	0.204	0.206	0.207	0.17
NCI-H2342	0.871	0.817	0.751	0.827	0.713	0.653	0.523	0.608	0.639	0.561	0.797	0.638	0.616	0.719	0.677	–	–	–	–	–
NCI-H1623	–	–	–	–	–	0.482	0.387	0.544	0.386	0.44	0.478	0.684	0.51	0.346	0.348	–	–	–	–	–
NCI-H1299	–	–	–	–	–	–	–	–	–	–	–	–	–	–	–	0.9	0.937	0.951	0.917	0.659
NCI-H1395	0.881	0.995	0.855	0.697	0.56	0.705	0.675	0.682	0.605	0.624	0.828	0.701	0.664	0.534	0.761	–	–	–	–	–
NCI-H522	1.02	1.24	0.766	1.28	0.95	0.74	0.661	0.734	0.791	0.571	1.26	1.12	1.04	1.14	1.17	–	–	–	–	–
A549	–	–	–	–	–	–	–	–	–	–	–	–	–	–	–	0.826	0.744	0.753	0.547	0.485
NCI-H1648	0.696	0.85	0.723	0.627	0.7	0.23	0.268	0.257	0.269	0.266	–	–	–	–	–	–	–	–	–	–
SW 900	–	0.49	0.444	0.464	0.489	0.545	–	0.737	0.576	0.481	0.168	0.161	–	0.149	0.167	–	–	–	–	–
IA-LM	–	–	–	–	–	–	–	–	–	–	–	–	–	–	–	1.05	0.945	0.631	0.787	0.631
ABC-1	–	–	–	–	–	0.513	0.578	0.712	0.626	0.371	0.507	0.719	–	0.52	0.41	1.09	1.04	1.23	0.988	0.68
